Among the test systems are A549; BT-549; DU-145; HL-60; IGROV-1; K562; KM12; LOX IMVI; MDA-N; MOLT-4; NCI-H460; NCI/ADR-RES; OVCAR-3; OVCAR-5; PC-3; SK-MEL-28; SNB-19; SNB-75; SR; U-251.
Holding throughout (experiment): growth of human tumour cells (NCI), 48 h

Each structure is given as a SMILES string.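 How tested: cells in 96-well plates exposed to compound for 48 hours at five concentrations. At the GI50, growth is halved.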 The source made the active and inactive calls. Cut-off read from the data, not from the text of the source: active = GI50 up to about 1.1 µM and inactive = higher.

Turning to `COC(=O)/C=C\C(C#N)(C#N)/N=C/c1ccccc1`, the GI50 in the test on A549 was 17.8 µM (inactive); with BT-549 it was 5.2 µM (inactive); in the test with DU-145, 17.1 µM (inactive); in the test on HL-60, 2.25 µM (inactive); in the test with IGROV-1, 12.9 µM (inactive); in the test with K562, 3.37 µM (inactive). For the same compound, the GI50 is 17.5 µM (inactive) in the test with KM12; 2.32 µM (inactive) in the test on LOX IMVI; 4.44 µM (inactive) in the test on MDA-N; 0.953 µM (active) in the test with MOLT-4; 18.7 µM (inactive) in the test on NCI-H460; 2.88 µM (inactive) with NCI/ADR-RES. Further, the GI50 in the test with OVCAR-3 is 2.11 µM (inactive); in the test with OVCAR-5, 19 µM (inactive); with PC-3 it was 5.94 µM (inactive); in the test with SK-MEL-28, 6 µM (inactive); with SNB-19 it was 23.9 µM (inactive); in the test on SNB-75 it was 6.35 µM (inactive). Moreover, the figures for the GI50 with SR and in the test with U-251 were 0.897 µM (active) and 17.7 µM (inactive), respectively.
On to `O=C(CSc1nc2ccc(I)cc2c(=O)n1Cc1ccccc1)NNC(=O)c1ccccc1`, for which the GI50 with A549 is 11.9 µM (inactive); in the test with BT-549 it was 7.31 µM (inactive); in the test on DU-145, 13.9 µM (inactive); in the test with HL-60, > 100 µM (inactive); in the test with IGROV-1 it was 9.27 µM (inactive); in the test on K562 it was 2.2 µM (inactive). Also, the GI50 in the test on KM12 is 17.5 µM (inactive); in the test with LOX IMVI, 22.5 µM (inactive); in the test with MDA-N, 25.1 µM (inactive); in the test with MOLT-4 it was 11.4 µM (inactive); with NCI-H460, 17.3 µM (inactive); with NCI/ADR-RES, 13.6 µM (inactive). Moreover, the GI50 is 19 µM (inactive) in the test on OVCAR-3; 16 µM (inactive) with OVCAR-5; 10.7 µM (inactive) with PC-3; 15.4 µM (inactive) in the test on SK-MEL-28; 21.3 µM (inactive) in the test with SNB-19; 2.38 µM (inactive) with SNB-75. In addition, the GI50 in the test with SR was 11.5 µM (inactive); in the test with U-251 it was 28 µM (inactive).
Turning to `N/C(=N\OC(=O)NC(Cl)=C(Cl)Cl)c1cc(C(F)(F)F)cc(C(F)(F)F)c1`, the GI50 in the test on A549 was 15.3 µM (inactive); in the test with BT-549, 21.8 µM (inactive); in the test on DU-145 it was 13.2 µM (inactive); in the test on HL-60, 12.8 µM (inactive); in the test with IGROV-1, 25.8 µM (inactive); in the test on KM12, 15.8 µM (inactive). In addition, the GI50 in the test with LOX IMVI was 16.3 µM (inactive); in the test on MDA-N it was 21.5 µM (inactive); in the test on MOLT-4, 9.48 µM (inactive); in the test with NCI-H460, 18.8 µM (inactive); with NCI/ADR-RES, 19.5 µM (inactive); with OVCAR-3, 14.8 µM (inactive). Moreover, the GI50 with OVCAR-5 was 21.1 µM (inactive); with PC-3 it was 17.5 µM (inactive); in the test with SK-MEL-28, 17.4 µM (inactive); in the test with SNB-19 it was 18.7 µM (inactive); in the test on SR, 10.7 µM (inactive); with U-251 it was 16 µM (inactive).
On to `N#CC1(c2ccccc2)CCN(C2(c3ccccc3)CCCCC2)CC1`, for which the GI50 in the test on A549, in the test on BT-549, in the test on DU-145, with HL-60, in the test on IGROV-1 and in the test on K562 was > 100 µM (inactive) each time. Further, the GI50 in the test on KM12, in the test with LOX IMVI, with MDA-N, with MOLT-4, with NCI/ADR-RES and in the test with OVCAR-3 was > 100 µM (inactive) in each case. In addition, the GI50 in the test with OVCAR-5, with PC-3, with SK-MEL-28, with SNB-19, with SNB-75 and in the test with SR was > 100 µM (inactive) in each case. For the same compound, in the test with U-251, the GI50 was > 100 µM (inactive).
As for `COc1cc2c(cc1OC)C(=O)/C(=C/c1ccc(Cl)cc1)CC2`, the GI50 with A549, with BT-549, with DU-145, with HL-60, in the test on IGROV-1 and with K562 was > 10 µM (inactive) each time. The GI50 in the test on KM12, in the test on LOX IMVI, in the test with MDA-N, with MOLT-4, with NCI-H460 and in the test on NCI/ADR-RES was > 10 µM (inactive) each time. Also, the GI50 in the test with OVCAR-3, in the test with OVCAR-5, with PC-3, in the test on SK-MEL-28, in the test with SNB-19 and in the test with SR was > 10 µM (inactive) in each case. In addition, in the test on U-251, the GI50 was > 10 µM (inactive).
Consider `CN1CCCOC(c2ccc(Cl)cc2)O1` (stereo not given), for which the GI50 in the test with A549, in the test on BT-549, with DU-145, with IGROV-1, in the test with K562 and in the test with KM12 was > 100 µM (inactive) each time. Besides, the GI50 in the test with LOX IMVI, in the test on MDA-N, with MOLT-4, in the test on NCI-H460, with NCI/ADR-RES and with OVCAR-3 was > 100 µM (inactive) in each case. For the same compound, the GI50 in the test with OVCAR-5, in the test with PC-3, in the test on SK-MEL-28, in the test on SNB-19, in the test with SNB-75 and with SR was > 100 µM (inactive) each time. Moreover, the GI50 in the test with U-251 was > 100 µM (inactive).
Turning to `O=C(NNC(=O)c1ccccc1Cl)c1ccccc1O`, the GI50 with A549 was 56.2 µM (inactive); in the test on BT-549, > 100 µM (inactive); in the test on DU-145, > 100 µM (inactive); in the test on IGROV-1, 3.84 µM (inactive); with K562, 91 µM (inactive); in the test on KM12, 20.1 µM (inactive). Also, the GI50 is 38.1 µM (inactive) in the test with LOX IMVI; > 100 µM (inactive) in the test on MDA-N; 57.1 µM (inactive) in the test on MOLT-4; 23.6 µM (inactive) in the test with NCI-H460; 20.3 µM (inactive) with NCI/ADR-RES; 25.2 µM (inactive) in the test on OVCAR-3. In addition, the GI50 with OVCAR-5 is > 100 µM (inactive); in the test on PC-3, 40.4 µM (inactive); in the test with SK-MEL-28, > 100 µM (inactive); with SNB-19, > 100 µM (inactive); in the test on SNB-75 it was 20.5 µM (inactive); in the test with SR it was 29.9 µM (inactive). Moreover, the GI50 in the test with U-251 is > 100 µM (inactive).
With `O=C1CCSc2c(cnc3ccccc23)N1`, the GI50 is > 100 µM (inactive) with A549; 27.4 µM (inactive) in the test on BT-549; > 100 µM (inactive) with DU-145; > 100 µM (inactive) with HL-60; > 100 µM (inactive) with IGROV-1; > 100 µM (inactive) with K562. Moreover, the GI50 in the test on KM12 is > 100 µM (inactive); in the test with LOX IMVI, 58.2 µM (inactive); with MDA-N, > 100 µM (inactive); with MOLT-4, > 100 µM (inactive); with NCI-H460, 89.7 µM (inactive); with NCI/ADR-RES, > 100 µM (inactive). For the same compound, the GI50 in the test on OVCAR-3 is 65.5 µM (inactive); with OVCAR-5, > 100 µM (inactive); with PC-3, 49.7 µM (inactive); in the test with SK-MEL-28, > 100 µM (inactive); in the test with SNB-75, 27.7 µM (inactive); in the test with SR it was > 100 µM (inactive). The GI50 with U-251 was > 100 µM (inactive).
For the compound `C=C1c2nc3ccccc3n2C=C(c2ccccc2)N1c1ccc(OC)cc1`, the GI50 is 18.5 µM (inactive) in the test on A549; 13.5 µM (inactive) in the test with BT-549; 26.4 µM (inactive) in the test with DU-145; 29.8 µM (inactive) with HL-60; 11 µM (inactive) in the test on IGROV-1; 45.4 µM (inactive) in the test with K562. The GI50 with KM12 is 11.4 µM (inactive); in the test with LOX IMVI, 50 µM (inactive); in the test with MDA-N, 49.9 µM (inactive); in the test on MOLT-4 it was 18.9 µM (inactive); in the test with NCI-H460, 11.7 µM (inactive); with NCI/ADR-RES, 17.7 µM (inactive). The GI50 was 57.8 µM (inactive) in the test on OVCAR-3; 43.7 µM (inactive) in the test on OVCAR-5; 19.1 µM (inactive) in the test with PC-3; 3.68 µM (inactive) in the test on SNB-75; 17.7 µM (inactive) in the test with SR; 37.8 µM (inactive) in the test on U-251.
As for `Cc1cc(S(=O)(=O)Nc2nc(N)n(-c3cnc4ccccc4n3)n2)c(S)cc1Cl`, the GI50 is > 100 µM (inactive) in the test on A549; 16.6 µM (inactive) in the test on BT-549; > 100 µM (inactive) in the test with DU-145; > 100 µM (inactive) in the test with HL-60; > 100 µM (inactive) in the test on IGROV-1; > 100 µM (inactive) with K562. Also, the GI50 is 60.4 µM (inactive) in the test with KM12; > 100 µM (inactive) in the test with LOX IMVI; > 100 µM (inactive) in the test with MDA-N; 36.6 µM (inactive) in the test on NCI-H460; > 100 µM (inactive) in the test on NCI/ADR-RES; > 100 µM (inactive) in the test on OVCAR-3. Moreover, the GI50 in the test with OVCAR-5 was > 100 µM (inactive); in the test with PC-3 it was > 100 µM (inactive); in the test on SK-MEL-28, > 100 µM (inactive); in the test with SNB-19, 39.1 µM (inactive); in the test on SNB-75, 22.7 µM (inactive); in the test on SR, > 10 µM (inactive). The GI50 in the test on U-251 is 41.9 µM (inactive).

Values taken from ChEMBL document CHEMBL1201862, “PubChem BioAssay data set” (2004).
